In PubChem BioAssay (NCI):
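Compound exposure: 48 hours, 5 concentrations, 96-well plates. GI50 is the concentration that inhibits growth by half. TGI: total growth inhibition.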

Experiments:
Assay in all cases: NCI anticancer screen, dose series, 48 h
[1] = tested on: EKVX NSCLC
[2] = tested on: OVCAR-4 ovarian
[3] = tested on: NCI-H226 lung
[4] = tested on: MDA-MB-231 breast
[5] = tested on: RXF 393 renal
[6] = tested on: HCT-116 colon
[7] = tested on: SF-295 CNS
[8] = tested on: DU-145 prostate
[9] = tested on: OVCAR-8 ovarian
[10] = tested on: LOX IMVI melanoma
[11] = tested on: HL-60(TB) leukemia
[12] = tested on: ACHN renal
[13] = tested on: RPMI-8226 leukemia
[14] = tested on: SK-MEL-28 melanoma
[15] = tested on: UACC-62 melanoma
[16] = tested on: HS 578T breast
[17] = tested on: SR leukemia
[18] = tested on: HOP-92 NSCLC
[19] = tested on: HCT-15 colon
[20] = tested on: TK-10 renal
[21] = tested on: A549 NSCLC
[22] = tested on: HCC-2998 colon
[23] = tested on: UACC-257 melanoma
[24] = tested on: KM12 colon
[25] = tested on: SNB-19 CNS
[26] = tested on: CCRF-CEM leukemia
[27] = tested on: IGROV1 ovarian
[28] = tested on: SK-MEL-2 melanoma
[29] = tested on: M14 melanoma
[30] = tested on: OVCAR-3 ovarian
[31] = tested on: SF-539 CNS
[32] = tested on: CAKI-1 renal
[33] = tested on: NCI/ADR-RES ovarian
[34] = tested on: T-47D breast
[35] = tested on: HOP-62 NSCLC
[36] = tested on: MCF7 breast
[37] = tested on: SF-268 CNS
[38] = tested on: MDA-MB-435
[39] = tested on: K-562 leukemia
[40] = tested on: BT-549 breast
[41] = tested on: COLO 205 colon
[42] = tested on: U251 CNS
[43] = tested on: SK-OV-3 ovarian
[44] = tested on: A498 renal
[45] = tested on: HT29 colon
[46] = tested on: OVCAR-5 ovarian
[47] = tested on: MOLT-4 leukemia
[48] = tested on: SW-620 colon
[49] = tested on: NCI-H23 lung
[50] = tested on: SN12C renal
[51] = tested on: UO-31 renal
[52] = tested on: SK-MEL-5 melanoma
[53] = tested on: NCI-H460 lung
[54] = tested on: SNB-75 CNS
[55] = tested on: NCI-H522 lung
[56] = tested on: PC-3 prostate
[57] = tested on: MALME-3M melanoma
[58] = tested on: 786-0 renal

## ClCc1cccc(CSc2ncnc3c2ncn3Cc2cccc(CCl)c2)c1
[1]
  GI50: 10.1 µM
  TGI: 24.6 µM
[2]
  GI50: 2380 nM
  TGI: 10.6 µM
[3]
  GI50: 1660 nM
  TGI: 4.54 µM
[4]
  GI50: 1.93 µM
  TGI: 3.82 µM
[5]
  GI50: 1.05 µM
  TGI: 2400 nM
[6]
  GI50: 1760 nM
  TGI: 3.31 µM
[7]
  GI50: 2130 nM
  TGI: 5.59 µM
[8]
  GI50: 1850 nM
  TGI: 3.3 µM
[9]
  GI50: 2110 nM
  TGI: 6.24 µM
[10]
  GI50: 1400 nM
  TGI: 2.74 µM
[11]
  GI50: 2260 nM
  TGI: 5.03 µM
[12]
  GI50: 2000 nM
  TGI: 4.39 µM
[13]
  GI50: 1890 nM
  TGI: 4.86 µM
[14]
  GI50: 1590 nM
  TGI: 3.08 µM
[15]
  GI50: 1760 nM
  TGI: 3.46 µM
[16]
  GI50: 5.39 µM
  TGI: > 100 µM
[17]
  GI50: 2820 nM
  TGI: 9.89 µM
[18]
  GI50: 1640 nM
  TGI: 3.32 µM
[19]
  GI50: 1710 nM
  TGI: 3.42 µM
[20]
  GI50: 1.93 µM
  TGI: 3.61 µM
[21]
  GI50: 4.54 µM
  TGI: 18.4 µM
[22]
  GI50: 1.71 µM
  TGI: 3.13 µM
[23]
  GI50: 1740 nM
  TGI: 3.37 µM
[24]
  GI50: 1880 nM
  TGI: 3.46 µM
[25]
  GI50: 1850 nM
  TGI: 3.46 µM
[26]
  GI50: 1600 nM
  TGI: 6.95 µM
[27]
  GI50: 1950 nM
  TGI: 4.51 µM
[28]
  GI50: 2580 nM
  TGI: 6.81 µM
[29]
  GI50: 1710 nM
  TGI: 3.23 µM
[30]
  GI50: 1.86 µM
  TGI: 3.31 µM
[31]
  GI50: 1580 nM
  TGI: 4.31 µM
[32]
  GI50: 1920 nM
  TGI: 4.34 µM
[33]
  GI50: 2110 nM
  TGI: 6.83 µM
[34]
  GI50: 2.31 µM
  TGI: 5.12 µM
[35]
  GI50: 1800 nM
  TGI: 3.33 µM
[36]
  GI50: 1590 nM
  TGI: 3.3 µM
[37]
  GI50: 1990 nM
  TGI: 4.91 µM
[38]
  GI50: 1710 nM
  TGI: 3.67 µM
[39]
  GI50: 2710 nM
  TGI: 15 µM
[40]
  GI50: 1320 nM
  TGI: 2.83 µM
[41]
  GI50: 1.88 µM
  TGI: 3.43 µM
[42]
  GI50: 1590 nM
  TGI: 3.01 µM
[43]
  GI50: 2.3 µM
  TGI: 4.97 µM
[44]
  GI50: 11.1 µM
  TGI: 23.6 µM
[45]
  GI50: 2040 nM
  TGI: 3.74 µM
[46]
  GI50: 1.84 µM
  TGI: 3.99 µM
[47]
  GI50: 3650 nM
  TGI: 17.2 µM
[48]
  GI50: 1.69 µM
  TGI: 3.47 µM
[49]
  GI50: 1750 nM
  TGI: 3.88 µM
[50]
  GI50: 2020 nM
  TGI: 7.33 µM
[51]
  GI50: 1740 nM
  TGI: 3.93 µM
[52]
  GI50: 1560 nM
  TGI: 2.9 µM
[53]
  GI50: 2040 nM
  TGI: 4.76 µM
[54]
  GI50: 1510 nM
  TGI: 2.93 µM
[55]
  GI50: 1420 nM
  TGI: 3.42 µM
[56]
  GI50: 1670 nM
  TGI: 3.34 µM

## COc1ccc(/C=C\c2cc(OC)c(OC)c(OC)c2)cc1OCC(=O)Nc1ccc2nc(C)sc2c1
[1]
  GI50: 4.05 µM
  TGI: > 100 µM
[2]
  GI50: 2640 nM
  TGI: 9.18 µM
[57]
  GI50: 2840 nM
  TGI: 8.29 µM
[3]
  GI50: 2750 nM
  TGI: 12 µM
[4]
  GI50: 5.45 µM
  TGI: > 100 µM
[5]
  GI50: 5.06 µM
  TGI: > 100000 nM
[6]
  GI50: 3570 nM
  TGI: > 100 µM
[7]
  GI50: 2450 nM
  TGI: 6.85 µM
[8]
  GI50: 3810 nM
  TGI: 29.7 µM
[9]
  GI50: 2120 nM
  TGI: 5.41 µM
[10]
  GI50: 2640 nM
  TGI: 9 µM
[12]
  GI50: 3120 nM
  TGI: 10.9 µM
[13]
  GI50: 1980 nM
  TGI: 4.69 µM
[14]
  GI50: 3220 nM
  TGI: 13.1 µM
[15]
  GI50: 2190 nM
  TGI: 5.16 µM
[16]
  GI50: 4.32 µM
  TGI: > 100 µM
[17]
  GI50: 2930 nM
  TGI: > 100 µM
[18]
  GI50: 2380 nM
  TGI: 7.62 µM
[19]
  GI50: 2800 nM
  TGI: 10.4 µM
[58]
  GI50: 7.55 µM
  TGI: > 100 µM
[20]
  GI50: 4.21 µM
  TGI: > 100 µM
[22]
  GI50: 6.9 µM
  TGI: > 100 µM
[23]
  GI50: 1730 nM
  TGI: 3.4 µM
[24]
  GI50: 3790 nM
  TGI: 14.8 µM
[25]
  GI50: 3890 nM
  TGI: > 100 µM
[26]
  GI50: 3410 nM
  TGI: > 100 µM
[27]
  GI50: 3720 nM
  TGI: 15.7 µM
[28]
  GI50: 3150 nM
  TGI: 19.1 µM
[29]
  GI50: 3380 nM
  TGI: 10.4 µM
[30]
  GI50: 6.32 µM
  TGI: 69.2 µM
[31]
  GI50: 2560 nM
  TGI: 14.6 µM
[32]
  GI50: 2190 nM
  TGI: 5.85 µM
[33]
  GI50: 2360 nM
  TGI: 8 µM
[34]
  GI50: 9.41 µM
  TGI: 33.8 µM
[35]
  GI50: 3090 nM
  TGI: 8.85 µM
[36]
  GI50: 748 nM
  TGI: 12.9 µM
[37]
  GI50: 3610 nM
  TGI: 36.1 µM
[38]
  GI50: 2130 nM
  TGI: 6.18 µM
[39]
  GI50: 2190 nM
  TGI: > 100 µM
[40]
  GI50: 3050 nM
  TGI: 8.53 µM
[41]
  GI50: 4.4 µM
  TGI: 16.2 µM
[42]
  GI50: 3590 nM
  TGI: > 100 µM
[43]
  GI50: 5.27 µM
  TGI: 50.4 µM
[44]
  GI50: 4.18 µM
  TGI: > 100 µM
[45]
  GI50: 3310 nM
  TGI: > 100 µM
[46]
  GI50: 6.69 µM
  TGI: > 100 µM
[47]
  GI50: 2110 nM
  TGI: 5.68 µM
[48]
  GI50: 4.7 µM
  TGI: 31.9 µM
[49]
  GI50: 2530 nM
  TGI: 7.95 µM
[50]
  GI50: 3530 nM
  TGI: > 100 µM
[51]
  GI50: 2410 nM
  TGI: 7.5 µM
[52]
  GI50: 1970 nM
  TGI: 5.14 µM
[53]
  GI50: 3360 nM
  TGI: 33.2 µM
[54]
  GI50: 1550 nM
  TGI: 7.37 µM
[55]
  GI50: 2280 nM
  TGI: 7.06 µM
[56]
  GI50: 2800 nM
  TGI: 8.01 µM
